Measurements published in patent US12077503B2, “Substituted cyclic amides and their use as herbicides” (FMC CORPORATION, priority 2015, dated 2024).

Experiments:
Type in all cases: in vivo
[1] = test system: redroot pigweed (Amaranthus retroflexus); experiment: Test G Post-Emergence Protocol; details: Amaranthus retroflexus, post-emergence, 312 h, read-out: Pigweed, Redroot damage rating; for pest or weed control at 15.625 g/ha: 15.625 g ai/ha, evaluated after 13 days (100=total damage to plant; 0=no damage to plant); for pest or weed control at 62.5 g/ha: 62.5 g ai/ha; for pest or weed control at 62.5 g/ha / pest or weed control at 250 g/ha: evaluated after 13 days, 100=total damage to plant, 0=no damage to plant; for pest or weed control at 250 g/ha: 250 g ai/ha
Method in brief: (§1)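 A glasshouse post-emergence test: 8-day-old plants sprayed at 15.625, 62.5 or 250 g/ha, then grown at 24/16 °C day/night with 14 h light and 65% humidity. Damage rated 13 days later, 0–100.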

[2] = test system: velvetleaf (Abutilon theophrasti); experiment: Test G Post-Emergence Protocol; details: Abutilon theophrasti, post-emergence, 312 h, read-out: Velvetleaf damage rating; for pest or weed control at 15.625 g/ha: 15.625 g ai/ha, evaluated after 13 days (100=total damage to plant; 0=no damage to plant); for pest or weed control at 62.5 g/ha: 62.5 g ai/ha; for pest or weed control at 62.5 g/ha / pest or weed control at 250 g/ha: evaluated after 13 days, 100=total damage to plant, 0=no damage to plant; for pest or weed control at 250 g/ha: 250 g ai/ha
Method in brief: as §1

[3] = test system: giant foxtail (Setaria faberi); experiment: Test G Post-Emergence Protocol; details: Setaria faberi, post-emergence, 312 h, read-out: Foxtail, Giant damage rating; for pest or weed control at 15.625 g/ha: 15.625 g ai/ha, evaluated after 13 days (100=total damage to plant; 0=no damage to plant); for pest or weed control at 62.5 g/ha: 62.5 g ai/ha; for pest or weed control at 62.5 g/ha / pest or weed control at 250 g/ha: evaluated after 13 days, 100=total damage to plant, 0=no damage to plant; for pest or weed control at 250 g/ha: 250 g ai/ha
Method in brief: as §1

[4] = test system: ivy-leaved morning glory (Ipomoea hederacea); experiment: Test G Post-Emergence Protocol; details: Ipomoea, post-emergence, 312 h, read-out: Morningglory, Ivy-leaved damage rating; for pest or weed control at 15.625 g/ha: 15.625 g ai/ha, evaluated after 13 days (100=total damage to plant; 0=no damage to plant); for pest or weed control at 62.5 g/ha: 62.5 g ai/ha; for pest or weed control at 62.5 g/ha / pest or weed control at 250 g/ha: evaluated after 13 days, 100=total damage to plant, 0=no damage to plant; for pest or weed control at 250 g/ha: 250 g ai/ha
Method in brief: as §1

[5] = test system: corn (Zea mays); experiment: Test G Post-Emergence Protocol; details: Zea mays, post-emergence, 312 h, read-out: Corn damage rating; for plant injury at 15.625 g/ha: 15.625 g ai/ha, evaluated after 13 days (100=total damage to plant; 0=no damage to plant); for plant injury at 62.5 g/ha: 62.5 g ai/ha; for plant injury at 62.5 g/ha / plant injury at 250 g/ha: evaluated after 13 days, 100=total damage to plant, 0=no damage to plant; for plant injury at 250 g/ha: 250 g ai/ha
Method in brief: as §1

[6] = test system: barnyardgrass (Echinochloa crus-galli); experiment: Test G Post-Emergence Protocol; details: Echinochloa crus-galli, post-emergence, 312 h, read-out: Barnyardgrass damage rating; for pest or weed control at 15.625 g/ha: 15.625 g ai/ha, evaluated after 13 days (100=total damage to plant; 0=no damage to plant); for pest or weed control at 62.5 g/ha: 62.5 g ai/ha; for pest or weed control at 62.5 g/ha / pest or weed control at 250 g/ha: evaluated after 13 days, 100=total damage to plant, 0=no damage to plant; for pest or weed control at 250 g/ha: 250 g ai/ha
Method in brief: as §1

[7] = test system: redroot pigweed (Amaranthus retroflexus); experiment: Test G Pre-Emergence Protocol; details: Amaranthus retroflexus, pre-emergence, 312 h, evaluated after 13 days; for pest or weed control at 15.625 g/ha: 15.625 g ai/ha; for pest or weed control at 15.625 g/ha / pest or weed control at 250 g/ha: read-out: Pigweed, Redroot damage rating (100=total damage to plant; 0=no damage to plant); for pest or weed control at 62.5 g/ha: 62.5 g ai/ha, 100=total damage to plant, 0=no damage to plant, read-out: Pigweed, Redroot damage rating; for pest or weed control at 250 g/ha: 250 g ai/ha
Method in brief: (§2)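 Glasshouse pre-emergence test: soil-sown seeds, sprayed after 1 d at 15.625, 62.5 or 250 g/ha. Conditions 24/16° C day/night, 14 h light, 65% humidity, watering twice daily. Rating 13 d post-spray (100 = total damage).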

[8] = test system: velvetleaf (Abutilon theophrasti); experiment: Test G Pre-Emergence Protocol; details: Abutilon theophrasti, pre-emergence, 312 h, evaluated after 13 days; for pest or weed control at 15.625 g/ha: 15.625 g ai/ha; for pest or weed control at 15.625 g/ha / pest or weed control at 250 g/ha: read-out: Velvetleaf damage rating (100=total damage to plant; 0=no damage to plant); for pest or weed control at 62.5 g/ha: 62.5 g ai/ha, 100=total damage to plant, 0=no damage to plant, read-out: Velvetleaf damage rating; for pest or weed control at 250 g/ha: 250 g ai/ha
Method in brief: as §2

[9] = test system: giant foxtail (Setaria faberi); experiment: Test G Pre-Emergence Protocol; details: Setaria faberi, pre-emergence, 312 h, evaluated after 13 days; for pest or weed control at 15.625 g/ha: 15.625 g ai/ha; for pest or weed control at 15.625 g/ha / pest or weed control at 250 g/ha: read-out: Foxtail, Giant damage rating (100=total damage to plant; 0=no damage to plant); for pest or weed control at 62.5 g/ha: 62.5 g ai/ha, 100=total damage to plant, 0=no damage to plant, read-out: Foxtail, Giant damage rating; for pest or weed control at 250 g/ha: 250 g ai/ha
Method in brief: as §2

[10] = test system: ivy-leaved morning glory (Ipomoea hederacea); experiment: Test G Pre-Emergence Protocol; details: Ipomoea, pre-emergence, 312 h, evaluated after 13 days; for pest or weed control at 62.5 g/ha: 62.5 g ai/ha, 100=total damage to plant, 0=no damage to plant, read-out: Morningglory, Ivy-leaved damage rating; for pest or weed control at 250 g/ha: 250 g ai/ha
Method in brief: as §2

[11] = test system: corn (Zea mays); experiment: Test G Pre-Emergence Protocol; details: Zea mays, pre-emergence, 312 h, evaluated after 13 days; for plant injury at 15.625 g/ha: 15.625 g ai/ha; for plant injury at 15.625 g/ha / plant injury at 250 g/ha: read-out: Corn damage rating (100=total damage to plant; 0=no damage to plant); for plant injury at 62.5 g/ha: 62.5 g ai/ha, 100=total damage to plant, 0=no damage to plant, read-out: Corn damage rating; for plant injury at 250 g/ha: 250 g ai/ha
Method in brief: as §2

[12] = test system: barnyardgrass (Echinochloa crus-galli); experiment: Test G Pre-Emergence Protocol; details: Echinochloa crus-galli, pre-emergence, 312 h, evaluated after 13 days; for pest or weed control at 15.625 g/ha: 15.625 g ai/ha; for pest or weed control at 15.625 g/ha / pest or weed control at 250 g/ha: read-out: Barnyardgrass damage rating (100=total damage to plant; 0=no damage to plant); for pest or weed control at 62.5 g/ha: 62.5 g ai/ha, 100=total damage to plant, 0=no damage to plant, read-out: Barnyardgrass damage rating; for pest or weed control at 250 g/ha: 250 g ai/ha
Method in brief: as §2

[13] = read-out: Morningglory, Ivy-leaved damage rating (100=total damage to plant; 0=no damage to plant)

CN1C[C@H](c2cccc(C(F)F)c2)[C@@H](C(=O)Nc2ccccc2S(C)(=O)=O)C1=O (racemic) [Compound 1800]
0%: pest or weed control at 15.625 g/ha [1] | pest or weed control at 15.625 g/ha [2] | pest or weed control at 62.5 g/ha [2] | pest or weed control at 250 g/ha [2] | pest or weed control at 15.625 g/ha [3] | pest or weed control at 15.625 g/ha [4] | plant injury at 15.625 g/ha [5] | plant injury at 62.5 g/ha [5] | plant injury at 250 g/ha [5] | pest or weed control at 15.625 g/ha [6] | pest or weed control at 15.625 g/ha [8] | pest or weed control at 250 g/ha [8] | pest or weed control at 15.625 g/ha ([10]; 15.625 g ai/ha, read-out: Morningglory, Ivy-leaved damage rating (100=total damage to plant; 0=no damage to plant)) | pest or weed control at 62.5 g/ha [10] | pest or weed control at 250 g/ha [10, 13] | plant injury at 15.625 g/ha [11] | plant injury at 62.5 g/ha [11] | plant injury at 250 g/ha [11]
10%: pest or weed control at 62.5 g/ha [1] | pest or weed control at 250 g/ha [1] | pest or weed control at 62.5 g/ha [4] | pest or weed control at 62.5 g/ha [6] | pest or weed control at 15.625 g/ha [7] | pest or weed control at 250 g/ha [7] | pest or weed control at 62.5 g/ha [8] | pest or weed control at 15.625 g/ha [12]
20%: pest or weed control at 62.5 g/ha [3] | pest or weed control at 250 g/ha [4] | pest or weed control at 62.5 g/ha [7] | pest or weed control at 15.625 g/ha [9]
90%: pest or weed control at 250 g/ha [9]
80%: pest or weed control at 250 g/ha [6] | pest or weed control at 250 g/ha [12]
40%: pest or weed control at 62.5 g/ha [12]
70%: pest or weed control at 250 g/ha [3] | pest or weed control at 62.5 g/ha [9]

Cc1cc(C2CN(C)C(=O)C2C(=O)Nc2cccc(F)c2F)cc(C)c1Cl (centres unmarked) [Compound 1700]
70%: pest or weed control at 250 g/ha [3] | pest or weed control at 250 g/ha [6] | pest or weed control at 250 g/ha [12]
10%: pest or weed control at 62.5 g/ha [10]
80%: pest or weed control at 62.5 g/ha [9]
50%: pest or weed control at 62.5 g/ha [6] | pest or weed control at 62.5 g/ha [12]
30%: plant injury at 15.625 g/ha [5] | plant injury at 62.5 g/ha [5] | plant injury at 250 g/ha [11]
60%: pest or weed control at 62.5 g/ha [3] | pest or weed control at 250 g/ha [4]
40%: pest or weed control at 15.625 g/ha [3] | plant injury at 250 g/ha [5] | pest or weed control at 15.625 g/ha [9]
90%: pest or weed control at 250 g/ha [9]
20%: pest or weed control at 15.625 g/ha [4] | pest or weed control at 62.5 g/ha [4] | pest or weed control at 15.625 g/ha [6] | pest or weed control at 250 g/ha [10, 13] | pest or weed control at 15.625 g/ha [12]
0%: pest or weed control at 15.625 g/ha [1] | pest or weed control at 62.5 g/ha [1] | pest or weed control at 250 g/ha [1] | pest or weed control at 15.625 g/ha [2] | pest or weed control at 62.5 g/ha [2] | pest or weed control at 250 g/ha [2] | pest or weed control at 15.625 g/ha [7] | pest or weed control at 62.5 g/ha [7] | pest or weed control at 250 g/ha [7] | pest or weed control at 15.625 g/ha [8] | pest or weed control at 62.5 g/ha [8] | pest or weed control at 250 g/ha [8] | plant injury at 15.625 g/ha [11] | plant injury at 62.5 g/ha [11]
